{"source": "patent US5028726A", "about": "“Platinum amine sulfoxide complexes” (The University of Vermont and State Agricultural College, priority 1990, dated 1991)", "key": {"[1]": {"test_system": "L1210 leukemia", "test": "In vivo efficacy, L1210 leukemia in mice", "parameters": "species or system murine (male BDR mice)", "settings": "days 1, 5 and 9", "procedure": "(§1) Male BDR mice weighing 18-20 gm were purchased from the National Cancer Institute and housed in an environment having controlled humidity, temperature and photoperiods. The animals had food and water available ad libitum and wood chip bedding was changed daily. The L1210/0 and P388 murine leukemias were maintained as ascites tumors by weekly intraperitoneal (i.p.) inoculations of 10^6 cells For testing purposes, 10^6 tumor cells were inoculated i.p. (day 0) and mice were administered test compound i.p. on days 1, 5 and 9. Animals were observed daily for signs of toxicity and deaths and the day of death recorded for each animal that died during the 60 day observation period. The efficacy of each dose of compound tested was evaluated by calculating the percent increased life span determined by dividing the mean survival time of treated mice (using the day of death of only those animals that dies during the 60 day period) by the mean survival time of non-treated tumor bearing control animals (% T/C). […] An additional index of antitumor activity is the number of long term survivors defined as treated animals alive at the end of the study. The complexes tested and the results observed are summarized in Table 3 (L1210 leukemia) and in Table 4 (P338 leukemia). The data in Table 5 compares to the in vivo activity of [PtCl(n-Bu2 SO)](damch)NO3 with that of cisplatin."}, "[2]": {"test_system": "L1210/0 murine leukemia cells", "test": "In vitro cytotoxicity, DDP-sensitive L1210/0 cells", "type": "cell-based", "settings": "L1210/0, DDP-sensitive; 72 hours; read-out: In Vitro Activity in L1210 Leukemia, L1210/O (ID50)", "procedure": "(§2) L1210 murine leukemia cells sensitive to the cytotoxicity of DDP (L1210/0) were cultured as a suspension in McCoy's 5A medium supplemented with 5% donor horse serum and glutamine. L1210 cells, 40-60 fold resistant to DDP (L1210/DDP) or 30-fold resistant to [Pt(R,R-dach)SO4 ] (L1210/dach), were cultured in McCoy's 5A medium supplemented with 10% fetal bovine serum and glutamine. Both cell lines were grown in a humidified atmosphere to 5% CO2 : 95% air at 37° C. For testing purposes, cells were diluted to 5×10^4 cells/ml and 1 ml of cell suspension aliquoted to disposable tissue culture tubes. Test compound was then added to the appropriate tubes (40 μl/tube) to attain final concentrations of 0.01, 0.1, 1.0 and 10 μg/ml. After 72 hours, the cell concentrations of all tubes were determined using a Coulter counter. The percent growth inhibition for each drug concentration was then calculated and the ID 50 (concentration of drug required to inhibit cell growth by 50%) was derived. The resistance factor for each compound was obtained by dividing the ID50 (L1210/DDP) by the ID50 (L1210/0).\n(§3) In Vitro Activity (μM) of [PtCl(R2 SO)(damch)]NO3 in L1210"}, "[3]": {"test_system": "L1210/DDP cells", "test": "In vitro cytotoxicity, DDP-resistant L1210/DDP cells", "type": "cell-based, murine", "settings": "for Resistance Factor (R), L1210/DDP: ID50 (L1210/DDP) divided by ID50 (L1210/0), 4320 min; for IC50: L1210/DDP, 40-60 fold resistant to DDP, 72 hours, read-out: In Vitro Activity in L1210 Leukemia, L1210/DDP (ID50)", "procedure": "as §2, §3\n(§4) ^a R = Resistance Factor which is defined as ID50 (Sensitive or […]"}, "[4]": {"settings": "clinical, compared with parent complex cisplatin; cited from earlier work"}, "[5]": {"test_system": "B16 melanoma", "test": "In vivo efficacy, B16 melanoma, compared to cisplatin", "parameters": "species or system mice", "settings": "tumor s.c., drug i.p."}, "[6]": {"test_system": "P388 leukemia", "test": "In vivo efficacy, P388 leukemia in mice", "parameters": "species or system murine (male BDR mice)", "settings": "days 1, 5 and 9", "procedure": "as §1"}, "[7]": {"test_system": "L1210/dach cells", "test": "In vitro cytotoxicity, [Pt(R,R-dach)SO4]-resistant L1210/dach cells", "type": "cell-based, murine", "procedure": "as §2, §3, §4"}, "[8]": {"settings": "dose 3 × 12.5, complex in saline"}}}
{"compound": "[PtCl(R2 SO)(damch)]NO3, R = n-Pr", "values": [{"measurement": "% T/C, L1210 leukemia", "setting": "[1]; 3 × 12.5 mg/kg i.p.", "result": 162, "unit": "%"}, {"measurement": "% T/C, L1210 leukemia", "setting": "[1]; 3 × 25 mg/kg i.p.", "result": 185, "unit": "%"}, {"measurement": "IC50", "setting": "[2]", "result": 620, "unit": "nM"}, {"measurement": "Resistance Factor (R), L1210/DDP", "setting": "[3]", "result": 4.70}, {"measurement": "IC50", "setting": "[3]", "result": 2920, "unit": "nM"}]}
{"compound": "N.N.O=C([O-])C1(C(=O)[O-])CCC1.[Pt+2]", "note": "[carboplatin, [Pt(NH3)2 (CBDCA)]]", "values": [{"measurement": "nephrotoxicity", "setting": "[4]", "result": "reduction in the severe nephrotoxicity of the parent complex"}]}
{"compound": "[PtCl(damch)(n-Bu2 SO)]^+ NO3 ^-", "values": [{"measurement": "% T/C, B16 melanoma", "setting": "[5]; dose 3 × 6.25, complex in saline", "result": 154, "unit": "%"}, {"measurement": "% T/C, B16 melanoma", "setting": "[5]; [8]", "result": 136, "unit": "%"}, {"measurement": "figure in parentheses after % T/C (presumably long term survivors), B16 melanoma", "setting": "[5]; [8]", "result": "1/6"}, {"measurement": "% T/C, B16 melanoma", "setting": "[5]; dose 3 × 25, complex in saline", "result": 188, "unit": "%"}, {"measurement": "% T/C, P388 leukemia", "setting": "[6]; dose 3 × 6.25, i.p.", "result": 167, "unit": "%"}, {"measurement": "% T/C, P388 leukemia", "setting": "[6]; dose 3 × 12.5, i.p.", "result": 146, "unit": "%"}, {"measurement": "% T/C, P388 leukemia", "setting": "[6]; dose 3 × 25 (D5W), i.p.", "result": 195, "unit": "%"}, {"measurement": "% T/C, P388 leukemia", "setting": "[6]; dose 3 × 25, i.p.", "result": 189, "unit": "%"}, {"measurement": "IC50", "setting": "[7]; L1210/dach, 30-fold resistant to [Pt(R,R-dach)SO4], 72 hours, read-out: In Vitro Activity in L1210 Leukemia, L1210/dach (ID50)", "result": 5360, "unit": "nM"}, {"measurement": "Resistance Factor (R), L1210/dach", "setting": "[7]; resistance factor for L1210/dach versus L1210/0, 4320 min", "result": 41.23}, {"measurement": "% T/C, L1210 leukemia", "setting": "[1]; 3 × 25 mg/kg (D5W) i.p.", "result": 260, "unit": "%"}, {"measurement": "IC50", "setting": "[2]", "result": 390, "unit": "nM"}, {"measurement": "Resistance Factor (R), L1210/DDP", "setting": "[3]", "result": 6.05}, {"measurement": "IC50", "setting": "[3]", "result": 2360, "unit": "nM"}]}
{"compound": "[PtCl(R2 SO)(damch)]NO3, R = Me [reference compound]", "values": [{"measurement": "% T/C, L1210 leukemia", "setting": "[1]; 3 × 100 mg/kg i.p.", "result": 152, "unit": "%"}, {"measurement": "IC50", "setting": "[2]", "result": 1090, "unit": "nM"}, {"measurement": "Resistance Factor (R), L1210/DDP", "setting": "[3]", "result": 3.58}, {"measurement": "IC50", "setting": "[3]", "result": 3900, "unit": "nM"}]}
{"compound": "N.N.[Cl][Pt][Cl]", "note": "[Cisplatin, cis-[PtCl2 (NH3)2], reference compound]", "values": [{"measurement": "% T/C, B16 melanoma", "setting": "[5]; dose 3 × 5", "result": 170, "unit": "%"}]}
